Assay results published in US11834413B2, “Antiplatelet drugs and uses thereof” (SHANGHAI CUREGENE PHARMACEUTICAL CO., LTD., priority 2020, dated 2023).

Assays:
[1] = after absorption; cited from earlier work
[2] = after a loading dose (600 mg); cited from earlier work
platelet aggregation = assay: Antiaggregatory action in rats: ex vivo ADP-induced platelet aggregation in PRP, turbidimetric aggregometry; set-up: species or system Male Sprague-Dawley rats; settings: rat, oral
Procedure: Assay 2: Antiaggregatory Action in Rats
Male Sprague-Dawley rats were used for ex vivo platelet aggregation experiments. After oral administrated with (clopidogrel, exemplary compounds provided herein and vehicle (control)) to rats, blood was collected via jugular vein at 0.5 hour, 1 hour and 2 hour time points, using 3.8% (w/v) sodium citrate solution as an anticoagulant ( 1/9 volume of whole blood). Blood samples with citrate were centrifuged at a low speed of 1000 rmp for 5 min to obtain platelet-rich plasma (PRP). After separation of PRP, the remained blood was further centrifuged at a high speed of 3000 rmp for 10 min to obtain platelet-poor plasma (PPP). The number of platelets in PRP was measured by hematology analyzer (Siemens, ADVIA2120), and adjusted to 4×10^8/mL with PPP.
Platelet aggregation was determined using turbidimetric aggregometry method by an automatic platelet aggregometer (PRECIL LBY-NJ4). The aggregometer was primarily warmed up to 37° C., and PRP (290 μL) sample was added to the cuvette and set in the automatic platelet aggregometer. After a 5 min pre-incubation, calibrated the aggregometer using PPP to representing 100% aggregation and PRP to representing 0% aggregation. Finally, a volume of […] ADP solution (final concentration 10 μM) was added to PRP sample to initial platelet aggregation. Platelet aggregation was monitored for 5 min and maximum platelet aggregation (%) was reported within the duration. Antiaggregatory action of test compounds was expressed as inhibition (%) which determined by the relation: Inhibition (%)=(maximum platelet aggregation (%) of control−maximum platelet aggregation (%) of test compound)/(maximum platelet aggregation (%) of control)*100

[3] = Pharmacokinetic in rats: concentration of the thiol active metabolite in plasma; format: in vivo, Male Sprague-Dawley rats; settings: for peak concentration of the thiol active metabolite compared with clopidogrel: rat plasma; for release of the active metabolite compared with clopidogrel: rat
Procedure: Assay 1: Pharmacokinetic in Rats
Male Sprague-Dawley rats were used to conduct pharmacokinetic experiment.
Test compounds (clopidogrel and exemplary compounds provided herein) was administrated orally or intravenously to rat under fast condition. Blood samples were collected via jugular vein at 5 min, 15 min, 30 min, 60 min and 120 min time points with EDTA-K2 (anticoagulant), 3′-methoxyphenacyl bromide (MPBr, derivatization reagent) and phenylmethylsulfonyl fluoride (PMSF, stabilizer). Plasma samples were then harvested by centrifuging at 1500 g for 10 min under 2-8° C. and stored at −80° C. after separation. Plasma samples were loaded to a LC-MS/MS instrument after extraction to determine the concentration of the thiol active metabolite.

**Q.** Which “fraction hydrolysed by esterases into an inactive carboxylic acid” value [1] does the source give for `COC(=O)[C@H](c1ccccc1Cl)N1CCc2sccc2C1` [clopidogrel, Clopidogrel] here?
**A.** Its value is 85%.

**Q.** And the “fraction undergoing two-step oxidation via hepatic cytochrome P450 isoenzymes, mainly CYP2C19” value [1]?
**A.** The value was 15%.

**Q.** And the onset of action [2]?
**A.** Its onset of action is 2 h.

**Q.** What about the inhibition at 10 mg/kg (platelet aggregation; Platelet, 10 mg/kg, ADP 10 μM, read-out: maximum inhibition of platelet aggregation) of the same compound?
**A.** The inhibition at 10 mg/kg was about 45%.

**Q.** And the “time after administration to maximum inhibition of platelet aggregation” value (platelet aggregation; 10 mg/kg)?
**A.** Its value is “about 120 minutes”.

**Q.** For `CCOC(=O)/C=C1\CN([C@H](C(=O)OC)c2ccccc2Cl)CCC1SCOC(=O)OC(C)C` (stereo partly drawn) [compound 2a], which “peak concentration of the thiol active metabolite compared with clopidogrel” value ([3]; oral, dose level 10 mg/kg) is on record?
**A.** The value was “significantly higher than that for clopidogrel”.

**Q.** And the “release of the active metabolite compared with clopidogrel” value (shortened to “release … compared with clopidogrel”) ([3]; oral, dose level 10 mg/kg)?
**A.** Its value is “faster and more efficient release of the active metabolite than clopidogrel”.

**Q.** For `COC(=O)[C@H](c1ccccc1Cl)N1CCC(SCOC(=O)OC(C)C)/C(=C\C(=O)O)C1` (stereo partly drawn) [compound 1b], which “peak concentration of the thiol active metabolite compared with clopidogrel” value ([3]; oral, dose level 10 mg/kg) is on record?
**A.** The value was “significantly higher than that for clopidogrel”.

**Q.** What about the “release … compared with clopidogrel” value ([3]; oral, dose level 10 mg/kg) of the same compound?
**A.** The value was “faster and more efficient release of the active metabolite than clopidogrel”.

**Q.** What about the inhibition at 2 mg/kg (platelet aggregation; Platelet, 2 mg/kg, ADP 10 μM, read-out: maximum inhibition of platelet aggregation) of the same compound?
**A.** Its inhibition at 2 mg/kg is about 45%.

**Q.** And the “time after administration to maximum inhibition of platelet aggregation” value (platelet aggregation; 2 mg/kg)?
**A.** The value was 60 min.

**Q.** What about the “onset of action and potency compared with clopidogrel” value (platelet aggregation; 2 mg/kg vs clopidogrel 10 mg/kg) of the same compound?
**A.** Its value is “much faster onset of action and much higher potency than clopidogrel”.

**Q.** With `COC(=O)OCSC1CCN([C@H](C(=O)OC)c2ccccc2Cl)C/C1=C/C(=O)O` (stereo partly drawn) [compound 3] as the compound, how does the “release … compared with clopidogrel” value ([3]; oral 2 mg/kg and intravenous 1 mg/kg vs clopidogrel oral 10 mg/kg) read?
**A.** The value was “faster and more efficient release of the active metabolite than clopidogrel”.

**Q.** What does the source list for `COC(=O)[C@H](c1ccccc1Cl)N1CCC(SCOC(=O)OC(C)C)/C(=C/C(=O)O)C1` (stereo partly drawn) [compound 1a]?
**A.** peak concentration of the thiol active metabolite compared with clopidogrel ([3]; oral, dose level 10 mg/kg): significantly higher than that for clopidogrel; release of the active metabolite compared with clopidogrel ([3]; oral, dose level 10 mg/kg): faster and more efficient release of the active metabolite than clopidogrel
